Assay results: ChEMBL document CHEMBL5518236, “Discovery of Clinical Candidate AZD5462, a Selective Oral Allosteric RXFP1 Agonist for Treatment of Heart Failure” (J Med Chem, 2024)
Calls of active or inactive are those of the source. No cut-off for these calls is given here.

Key:
[1] = Metabolic stability in human hepatocytes assessed as unbound intrinsic clearance measured per 10^6 viable cells/ml at 1 uM measured upto 120 mins by LC-MS/MS analysis; type: ADME, cell-based, Hepatocyte; conditions: 2 h
Relaxin receptor 1 [2] = molecular target: T1, Relaxin receptor 1 (Mus musculus, UniProt Q6R6I7)
T1 sequence (Q6R6I7 whole entry): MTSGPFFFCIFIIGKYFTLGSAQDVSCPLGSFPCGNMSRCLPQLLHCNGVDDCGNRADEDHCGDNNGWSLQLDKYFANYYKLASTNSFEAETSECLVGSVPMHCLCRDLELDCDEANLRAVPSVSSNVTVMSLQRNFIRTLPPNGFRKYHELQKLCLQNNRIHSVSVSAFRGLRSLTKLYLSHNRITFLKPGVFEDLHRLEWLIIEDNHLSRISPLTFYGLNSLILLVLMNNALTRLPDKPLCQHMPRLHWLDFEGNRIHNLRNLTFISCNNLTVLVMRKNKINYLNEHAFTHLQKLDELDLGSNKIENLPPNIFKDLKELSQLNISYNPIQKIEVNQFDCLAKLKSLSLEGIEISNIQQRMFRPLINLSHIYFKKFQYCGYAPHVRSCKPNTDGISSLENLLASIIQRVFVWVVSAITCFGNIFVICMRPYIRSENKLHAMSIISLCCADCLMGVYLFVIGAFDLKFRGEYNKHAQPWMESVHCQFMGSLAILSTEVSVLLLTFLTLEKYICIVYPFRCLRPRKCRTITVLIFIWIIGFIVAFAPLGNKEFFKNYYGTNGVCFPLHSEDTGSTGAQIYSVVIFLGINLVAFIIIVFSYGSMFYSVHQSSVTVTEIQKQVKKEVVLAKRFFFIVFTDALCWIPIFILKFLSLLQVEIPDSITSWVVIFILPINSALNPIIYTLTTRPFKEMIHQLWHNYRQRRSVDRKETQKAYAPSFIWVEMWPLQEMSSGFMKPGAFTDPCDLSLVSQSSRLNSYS
Description: Agonist activity at mouse RXFP1 expressed in CHO-K1 cells assessed as increase in cAMP level measured after 2 hrs by HTRF cAMP assay

[3] = Protein binding in rat plasma assessed as fraction unbound at 5 uM measured after 18 hrs by LC-MS/MS analysis; type: ADME, cell-free; conditions: read-out: PPB
[4] = Metabolic stability in rat hepatocytes assessed as unbound intrinsic clearance measured per 10^6 viable cells/ml at 1 uM measured upto 120 mins by LC-MS/MS analysis; type: ADME, cell-based, Hepatocyte; conditions: 2 h
[5] = Clearance in Han Wistar rat at 0.96 micromol/kg, iv by LC-MS/MS analysis; type: ADME, organism-based; conditions: in vivo, dose 0.96 µmol/kg
[6] = Metabolic stability in human hepatocytes assessed as intrinsic clearance measured per 10^6 viable cells/ml at 1 uM measured upto 120 mins by LC-MS/MS analysis; type: ADME, cell-based, Hepatocyte; conditions: read-out: CLH
[7] = Volume of distribution at steady state in Han Wistar rat at 0.96 micromol/kg, iv by LC-MS/MS analysis; type: ADME, organism-based; conditions: in vivo, dose 0.96 µmol/kg, read-out: Vdss
Relaxin receptor 1 [8] = molecular target: T2, Relaxin receptor 1 (Homo sapiens, UniProt Q9HBX9)
T2 sequence (Q9HBX9 whole entry): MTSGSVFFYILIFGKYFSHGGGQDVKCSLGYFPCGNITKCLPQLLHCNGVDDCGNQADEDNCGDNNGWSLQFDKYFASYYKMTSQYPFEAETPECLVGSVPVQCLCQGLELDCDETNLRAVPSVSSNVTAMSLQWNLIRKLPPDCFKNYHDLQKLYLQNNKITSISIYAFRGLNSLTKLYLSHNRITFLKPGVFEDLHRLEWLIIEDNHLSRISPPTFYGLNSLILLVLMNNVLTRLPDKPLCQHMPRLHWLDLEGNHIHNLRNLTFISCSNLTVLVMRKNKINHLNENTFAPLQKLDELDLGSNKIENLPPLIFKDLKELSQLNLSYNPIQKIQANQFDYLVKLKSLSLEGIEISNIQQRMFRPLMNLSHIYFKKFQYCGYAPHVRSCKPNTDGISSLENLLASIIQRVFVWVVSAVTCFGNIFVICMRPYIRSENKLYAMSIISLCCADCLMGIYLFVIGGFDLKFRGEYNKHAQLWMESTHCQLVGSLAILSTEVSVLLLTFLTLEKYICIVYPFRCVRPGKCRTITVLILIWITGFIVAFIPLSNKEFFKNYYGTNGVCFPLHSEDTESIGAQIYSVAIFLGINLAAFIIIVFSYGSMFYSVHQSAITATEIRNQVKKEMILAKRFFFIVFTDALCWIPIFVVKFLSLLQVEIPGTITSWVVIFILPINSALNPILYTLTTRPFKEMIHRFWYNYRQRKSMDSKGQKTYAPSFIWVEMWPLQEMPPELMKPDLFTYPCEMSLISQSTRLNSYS
Description: Agonist activity at human RXFP1 expressed in CHO cells assessed as increase in cAMP level measured after 2 hrs by HTRF cAMP assay

[9] = Half life in Han Wistar rat at 0.96 micromol/kg, iv by LC-MS/MS analysis; type: ADME, organism-based; conditions: in vivo, dose 0.96 µmol/kg
[10] = Octanol/water partition coefficient, logD of the compound at pH 7.4 by shake flask method; type: physicochemical
[11] = Oral bioavailability in Han Wistar rat at 1.9 micromol/kg by LC-MS/MS analysis; type: ADME, organism-based; conditions: in vivo, 1.9 µmol/kg
[12] = Metabolic stability in human liver microsomes assessed as intrinsic clearance at 1 uM measured upto 30 mins by LC-MS/MS analysis; type: ADME, Microsome; conditions: read-out: CLH
[13] = Metabolic stability in human liver microsomes assessed as unbound intrinsic clearance at 1 uM measured upto 30 mins by LC-MS/MS analysis; type: ADME, Microsome; conditions: 0.5 h
[14] = Half life in Han Wistar rat at 0.93 micromol/kg, iv by LC-MS/MS analysis; type: ADME, organism-based; conditions: in vivo, dose 0.93 µmol/kg
[15] = Clearance in Han Wistar rat at 0.93 micromol/kg, iv by LC-MS/MS analysis; type: ADME, organism-based; conditions: in vivo, dose 0.93 µmol/kg
[16] = Oral bioavailability in Han Wistar rat at 9.3 micromol/kg by LC-MS/MS analysis; type: ADME, organism-based; conditions: in vivo, 9.3 µmol/kg
Relaxin receptor 1 [17] = molecular target: T3, Relaxin receptor 1 (Rattus norvegicus, UniProt Q6R6I6); test: Agonist activity at rat RXFP1 expressed in CHO-K1 cells assessed as increase in cAMP level measured after 2 hrs by HTRF cAMP assay; type: functional, cell-based
T3 sequence (Q6R6I6 whole entry): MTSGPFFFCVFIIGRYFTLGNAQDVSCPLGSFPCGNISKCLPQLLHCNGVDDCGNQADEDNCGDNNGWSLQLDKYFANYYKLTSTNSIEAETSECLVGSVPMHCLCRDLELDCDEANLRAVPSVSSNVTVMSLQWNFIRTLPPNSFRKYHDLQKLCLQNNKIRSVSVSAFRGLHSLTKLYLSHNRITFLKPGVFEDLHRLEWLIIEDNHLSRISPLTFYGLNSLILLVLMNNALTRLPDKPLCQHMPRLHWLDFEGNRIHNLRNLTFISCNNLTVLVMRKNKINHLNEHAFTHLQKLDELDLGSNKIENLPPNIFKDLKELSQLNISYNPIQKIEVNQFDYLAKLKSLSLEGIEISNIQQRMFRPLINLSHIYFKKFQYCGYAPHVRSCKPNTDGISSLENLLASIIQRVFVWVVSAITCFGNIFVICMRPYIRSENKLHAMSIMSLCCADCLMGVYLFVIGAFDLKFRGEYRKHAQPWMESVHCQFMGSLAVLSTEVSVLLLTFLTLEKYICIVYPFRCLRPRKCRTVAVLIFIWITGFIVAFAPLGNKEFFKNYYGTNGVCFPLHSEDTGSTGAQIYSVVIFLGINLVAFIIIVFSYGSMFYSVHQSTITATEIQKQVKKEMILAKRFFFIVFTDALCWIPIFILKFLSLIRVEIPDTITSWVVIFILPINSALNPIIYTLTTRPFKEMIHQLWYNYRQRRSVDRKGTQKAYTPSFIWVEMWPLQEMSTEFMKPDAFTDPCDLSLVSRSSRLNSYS

[18] = Volume of distribution at steady state in Han Wistar rat at 0.93 micromol/kg, iv by LC-MS/MS analysis; type: ADME, organism-based; conditions: in vivo, dose 0.93 µmol/kg, read-out: Vdss
[19] = molecular target: T4, Relaxin receptor 1 (Homo sapiens) (UniProt Q9HBX9); conditions: CHO-K1, time 15.0 min
T4 sequence (whole entry): T2 sequence (Q9HBX9 whole entry)

[20] = Protein binding in human plasma assessed as fraction unbound at 5 uM measured after 18 hrs by LC-MS/MS analysis; type: ADME, cell-free; conditions: read-out: PPB

| EC50 (Relaxin receptor 1 [2]) | fraction unbound at 18 h, 5 µM [3] | clearance [5] | Vd [7] | EC50 (Relaxin receptor 1 [8]) | half-life [9] | logD [10] | bioavailability [11] | microsomal CLint at 1 µM [12] | CL free [13] | half-life [14] | clearance [15] | bioavailability [16] | EC50 (Relaxin receptor 1 [17]) | Vd [18] | pEC50 [19] | fraction unbound at 18 h, 5 µM [20] | Compound | CL free [1] | CL free [4] | hepatocyte CLint at 1 µM [6] |
| --- | --- | --- | --- | --- | --- | --- | --- | --- | --- | --- | --- | --- | --- | --- | --- | --- | --- | --- | --- | --- |
| > 39800 nM | 0.079 | 64 mL/min/kg | 0.6 L/kg | 1000 nM | 1.8 h | 2.3 | 5.6% | 6.8 µL/min/mg | 8.5 µL/min/mg |  |  |  |  |  |  |  | COc1cc(F)c(O[C@H]2CC[C@@H](C(=O)O)CC2)cc1C(=O)N[C@@H]1[C@H]2CC[C@H](C2)[C@@H]1C(=O)NCC(C)(C)C | 3.4 µL/min | 133 µL/min | 2.2 µL/min/1e6 cells |
| 1260 nM | 0.078 |  |  |  |  | 2.3 |  | < 3 µL/min/mg | < 4.3 µL/min/mg | 2 h | 41 mL/min/kg | 61% | 15800 nM | 0.55 L/kg |  |  | COc1cc(C#N)c(O[C@H]2CC[C@@](C)(C(=O)O)CC2)cc1C(=O)N[C@@H]1[C@H]2CC[C@H](C2)[C@@H]1C(=O)NCC(C)(C)C | < 2 µL/min | 15 µL/min | < 1.3 µL/min/1e6 cells |
|  | < 0.0002 |  |  |  |  | > 4 |  |  |  |  |  |  |  |  | inactive | < 0.0002 | CC(C)Oc1ccccc1C(=O)Nc1ccccc1C(=O)Nc1cccc(S(=O)(=O)C(F)(F)F)c1 | 3.07 10^3uL/min |  |  |
